Source: patent US8772029B2, “Modulation of oocyte meiotic progression and oocyte activation” (Northwestern University, priority 2011, dated 2014)

Legend:
[1] = system: MAPK; experiment: Myelin basic protein (MBP) kinase assay on single eggs (MAPK activity); type: cell-based, mouse; settings: in vivo ovulated MII eggs, KSOM with 10 μM TPEN, 1 to 8 hours
Description: Histone H1 and myelin basic protein (MBP) dual kinase assays were performed as previously described (Svoboda et al., 2000). Dried gels were exposed to Kodak BIOMAX MR films for 12 to 72 hours at −80° C. using Kodak intensifying screens; films were developed, scanned, and analyzed using ImageJ software. Assays were performed on single oocytes, and densitometric analysis is expressed relative to levels in control eggs.

[2] = target: T1, Emi2 (Mus musculus, UniProt Q8CDI2); experiment: MI arrest induced by Emi2 cRNA injected into GV oocytes, IVM with or without TPEN; type: cell-based; settings: IVM medium with 10 μM TPEN 14 h
T1 construct: expressed in transfected cells; host or cells: mouse oocytes microinjected with in vitro transcribed cRNA (pIVT vector)
T1 sequence (Q8CDI2 1-640): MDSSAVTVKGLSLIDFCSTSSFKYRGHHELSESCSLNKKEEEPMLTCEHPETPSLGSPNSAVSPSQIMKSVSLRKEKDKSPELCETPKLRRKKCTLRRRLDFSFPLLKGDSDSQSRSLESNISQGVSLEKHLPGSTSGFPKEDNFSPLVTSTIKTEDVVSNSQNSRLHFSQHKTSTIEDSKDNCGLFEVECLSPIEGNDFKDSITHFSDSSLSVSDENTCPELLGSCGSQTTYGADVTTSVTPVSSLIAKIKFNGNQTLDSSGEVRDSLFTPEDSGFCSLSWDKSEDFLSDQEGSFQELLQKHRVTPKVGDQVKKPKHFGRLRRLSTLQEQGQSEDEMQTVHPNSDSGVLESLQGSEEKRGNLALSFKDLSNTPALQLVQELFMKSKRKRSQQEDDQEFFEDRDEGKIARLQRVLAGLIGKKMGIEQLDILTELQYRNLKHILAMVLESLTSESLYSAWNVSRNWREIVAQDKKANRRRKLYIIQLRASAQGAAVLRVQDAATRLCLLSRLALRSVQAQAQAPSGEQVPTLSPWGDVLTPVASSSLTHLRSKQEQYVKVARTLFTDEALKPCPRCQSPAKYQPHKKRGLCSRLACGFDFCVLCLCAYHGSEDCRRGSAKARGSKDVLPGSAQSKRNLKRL
Description: Oocytes were denuded of cumulus cells and fixed in a microtubule stabilizing buffer (Ibanez et al., 2005) containing 2% formaldehyde and 1% Triton X-100 for 30 min at 37° C. Oocytes were washed and blocked in PBS containing 0.1M glycine, 3mg/mL BSA, 0.01% Tween 20, and 0.01% sodium azide for at least 1 h and were stored in blocking solution at 4° C. for up to 2 weeks. Oocytes were incubated with anti-tubulin antibody (1:100) for 1 h at 37C. followed by three washes in blocking solution. They were then incubated for 1 h in AlexaFluor-488 conjugated anti-mouse secondary antibody (5μg/mL) and rhodamine-phalloidin (2U/mL), washed three additional times, and mounted in VECTASHIELD with DAPI. Microscopy was performed using a Leica SP5 inverted laser-scanning confocal microscope with a 63x oil immersion objective (Leica Microsystems, Heidelberg, Germany). Images were processed using LAS AF software (Leica Microsystems).
Microinjection was performed essentially as previously described (Bernhardt et al., 2010). GV intact oocytes were collected and manually denuded of cumulus cells in L-15/FBS containing 0.2 mM IBMX, then transferred to drops of L-15 medium containing 0.05% (w/v) polyvinyl alcohol (PVA) and 0.5% (v/v) penicillin-streptomycin (Invitrogen) under light mineral oil on a heated stage for injection. […]

[3] = system: MII eggs; experiment: Activation of in vivo ovulated MII eggs (SrCl2, TPEN, ZnPT pre-treatment)
Description: Ovulated MII eggs were collected as described above. Eggs were transferred to KSOM medium with or without 10 μM ZnPT (1:1000 dilution of a 10 mM stock in DMSO) for exactly 5 minutes. Eggs were then washed in KSOM and allowed to recover for 10-15 minutes prior to activation. For SrCl2 activation, eggs were transferred to drops of calcium-free KSOM containing 10 mM SrCl2 for 2 hours, followed by 4 additional hours of culture in calcium-containing KSOM without SrCl2. TPEN activation was performed as previously described (Kim et al., 2011); eggs were cultured for 6 hours in KSOM containing 10 μM TPEN. Unactivated controls were cultured in KSOM for the same 6 hour time period to assess levels of spontaneous parthenogenesis.
MII eggs were treated with the ionophore zinc pyrithione (ZnPT) for 5 minutes to increase intracellular zinc. Following a 10-15 minute recovery period, eggs were then treated with activating agents SrCl2 or TPEN.

Compound: c1ccc(CN(CCN(Cc2ccccn2)Cc2ccccn2)Cc2ccccn2)nc1 [TPEN, N,N,N′,N′-tetrakis(2-pyridylmethyl)ethylenediamine]
- MAPK activity (MBP kinase) in MII eggs [1]: did not change appreciably
- oocytes arrested at MI [2]: 44%
- egg activation by TPEN after ZnPT pre-treatment ([3]; MII eggs, 10 μM ZnPT 5 minutes, then 10 μM TPEN 6 h): caused activation
- egg activation (second polar body and PN or PN-like structures) ([3]; control MII eggs, by 6 hours post activation, 10 mM SrCl2 2 h or 10 μM TPEN 6 h): activated normally
